Laboratory results reported in patent US20100298141A1, “SUBSTITUTED PYRIDINE N-OXIDE HERBICIDES” (E. I. DU PONT DE NEMOURS AND COMPANY, priority 2007, published 2010).

Assays:
windgrass = assay: Test C pre-/postemergence test; assay type: in vivo, Apera spica-venti; conditions: Postemergence; for Plant response rating, Windgrass: scale 0 to 100, 0 no effect, 100 complete control
Text: Seeds of plant species selected from blackgrass (Alopecurus myosuroides), downy brome (Bromus tectorum), green foxtail (Setaria viridis), Italian ryegrass (Lolium multiflorum), wheat (Triticum aestivum), wild oat (Avena fatua), catchweed bedstraw (Galium aparine), Russian thistle (Salsola kali), […] (Cynodon dactylon), Surinam grass (Brachiaria decumbens), cocklebur (Xanthium strumarium), corn (Zea mays), crabgrass (Digitaria sanguinalis), woolly cupgrass (Eriochloa villosa), giant foxtail (Setaria faberii), Goosegrass (Eleusin indica), johnsongrass (Sorghum halepense), kochia (Kochia scoparia), lambsquarters (Chenopodium album), morningglory (Ipomoea coccinea), eastern black nightshade (Solanum ptycanthum), yellow nutsedge (Cyperus esculentus), pigweed (Amaranthus retroflexus), common ragweed (Ambrosia elation), soybean (Glycine max), common (oilseed) sunflower (Helianthus annuus), and velvetleaf (Abutilon theophrasti) were planted and treated preemergence with test chemicals formulated in a non-phytotoxic solvent mixture which included a surfactant. At the same time, plants selected from these crop and weed species and also winter barley (Hordeum vulgare), canarygrass (Phalaris minor), and chickweed (Stellaria media) were treated with postemergence applications of some of the test chemicals formulated in the same manner. Plants ranged in height from 2 to 18 cm (1- to 4-leaf stage) for postemergence treatments. […] At time of treatment, test pots were flooded to 3 cm above the soil surface, treated by application of test compounds directly to the paddy water, and then maintained at that water depth for the duration of the test. […] A dash (-) response means no test result.

winter barley = assay: Test C postemergence test; assay type: in vivo, Hordeum vulgare; conditions: for Plant response rating (0 to 100), Barley: 31 g ai/ha; for Plant response rating, Barley: scale 0 to 100, 0 no effect, 100 complete control
Protocol: (§1) At the same time, plants selected from these crop and weed species and also winter barley (Hordeum vulgare), canarygrass (Phalaris minor), and chickweed (Stellaria media) were treated with postemergence applications of some of the test chemicals formulated in the same manner. Plants ranged in height from 2 to 18 cm (1- to 4-leaf stage) for postemergence treatments. […] At time of treatment, test pots were flooded to 3 cm above the soil surface, treated by application of test compounds directly to the paddy water, and then maintained at that water depth for the duration of the test. Treated plants and controls were maintained in a greenhouse for 13 to 15 days, after which time all species were compared to controls and visually evaluated. […] A dash (-) response means no test result.

canarygrass = assay: Test C postemergence test; assay type: in vivo, Phalaris minor; conditions: for Plant response rating (0 to 100), Canarygrass: 31 g ai/ha; for Plant response rating, Canarygrass: scale 0 to 100, 0 no effect, 100 complete control
Protocol: as §1

chickweed = assay: Test C postemergence test; assay type: in vivo, Stellaria media; conditions: for Plant response rating (0 to 100), Chickweed: 31 g ai/ha; for Plant response rating, Chickweed: scale 0 to 100, 0 no effect, 100 complete control
Protocol: as §1

johnsongrass = assay: Test F preemergence test; assay type: in vivo, Sorghum halepense; conditions: scale 0 to 100
Outline: (§2)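 Compound in a non-phytotoxic solvent blend with surfactant is applied preemergence to planted seeds or postemergence to sugarcane plants. Plants and controls stay in the greenhouse 14 to 21 days before visual comparison.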

common sowthistle = assay: Test F preemergence test; assay type: in vivo, Sonchus oleraceous; conditions: scale 0 to 100
Outline: as §2

common chickweed = assay: Test F preemergence test; assay type: in vivo, Stellaria media; conditions: scale 0 to 100
Text: (§3) Seeds of plant species selected from bermudagrass (Cynodon dactylon), Surinam grass (Brachiaria decumbens), large crabgrass (Digitaria sanguinalis), green foxtail (Setaria viridis), goosegrass (Eleusine indica), johnsongrass (Sorghum halepense), kochia (Kochia scoparia), pitted morningglory (Ipomoea lacunosa), purple nutsedge (Cyperus rotundus), common ragweed (Ambrosia elation), mustard (Brassica nigra), guineagrass (Panicum maximum), […] (Paspalum dilatatum), barnyardgrass (Echinochloa crus-galli), southern sandbur (Cenchrus echinatus), common sowthistle (Sonchus oleraceous), prickly […] spinosa), Italian ryegrass (Lolium multiflorum), common purslane (Portulaca oleracea), broadleaf signalgrass (Brachiaria platyphylla), common groundsel (Senecio vulgaris), common chickweed (Stellaria media), Virginia dayflower (Commelina virginica), annual bluegrass (Poa annua), naked crabgrass (Digitaria nuda), […] cochinchinensis), quackgrass (Elytrigia repens), Canada horseweed (Conyza canadensis), field bindweed (Convolvulus arvensis), […] (Bidens bipinnata), common mallow (Malva sylvestris), Russian thistle (Salsola kali), and sugarcane (Saccharum officinarum) were planted and treated preemergence with test chemicals formulated in a non-phytotoxic solvent mixture which included a surfactant. At a different time, sugarcane was treated with postemergence applications of some of the test chemicals formulated in the same manner. Plants were approximately 3- to 4-leaf stage for the postemergence treatments. Treated plants and controls were maintained in a greenhouse for 14 to 21 days, after which time all species were compared to controls and visually evaluated. […] A dash (-) response means no test result.

Russian thistle = assay: Test F preemergence test; assay type: in vivo, Salsola kali; conditions: scale 0 to 100
Text: as §3

Canada horseweed = assay: Test F preemergence test; assay type: in vivo, Conyza canadensis; conditions: scale 0 to 100
Outline: as §2

spanishneedles = assay: Test F preemergence test; assay type: in vivo, Bidens bipinnata; conditions: scale 0 to 100
Text: as §3

Compound | Plant response rating, Johnsongrass (johnsongrass; 8 g ai/ha, preemergence) | Johnsongrass plant response rating (johnsongrass; 62 g ai/ha, Preemergence) | Plant response rating, Johnsongrass (johnsongrass; Preemergence, 16 g ai/ha) | Plant response rating, Johnsongrass (johnsongrass; Preemergence, 31 g ai/ha) | Plant response rating, Sowthistle (common sowthistle; 8 g ai/ha, preemergence) | Plant response rating, Sowthistle (common sowthistle; 16 g ai/ha, preemergence) | Sowthistle plant response rating (common sowthistle; 62 g ai/ha, Preemergence) | Plant response rating, Sowthistle (common sowthistle; Preemergence, 31 g ai/ha) | Plant response rating, Chickweed (common chickweed; 8 g ai/ha, preemergence) | Chickweed plant response rating (common chickweed; 62 g ai/ha, Preemergence) | Plant response rating, Chickweed (common chickweed; Preemergence, 16 g ai/ha) | Plant response rating, Chickweed (common chickweed; Preemergence, 31 g ai/ha) | Plant response rating, Russian Thistle (Russian thistle; Preemergence, 16 g ai/ha) | Plant response rating, Russian Thistle (Russian thistle; Preemergence, 31 g ai/ha) | Russian Thistle plant response rating (Russian thistle; 62 g ai/ha, Preemergence) | Johnsongrass plant response rating (johnsongrass; 125 g ai/ha, preemergence) | Sowthistle plant response rating (common sowthistle; 125 g ai/ha, preemergence) | Chickweed plant response rating (common chickweed; 125 g ai/ha, preemergence) | Horseweed plant response rating (Canada horseweed; 62 g ai/ha, Preemergence) | Horseweed plant response rating (Canada horseweed; 125 g ai/ha, preemergence) | further results
Cn1nc(C(F)(F)F)c(C[S+]([O-])c2ccc(Cl)c[n+]2[O-])c1OC(F)F (centres unmarked) [Compound 6] | 75 | 95 | 75 | 95 | 0 | 0 | 90 | 50 | 80 | 100 | 100 | 100 | 0 | 0 |  |  |  |  |  |  | Plant response rating (0 to 100), Windgrass (windgrass; 31 g ai/ha): 50; Plant response rating (0 to 100), Windgrass (windgrass; 62 g ai/ha): 98; Plant response rating, Windgrass (windgrass; 125 g ai/ha): 100; Plant response rating, Windgrass (windgrass; 250 g ai/ha): 100; Plant response rating (0 to 100), Barley (winter barley): 0; Plant response rating, Barley (winter barley; 62 g ai/ha): 0; Plant response rating, Barley (winter barley; 125 g ai/ha): 0; Plant response rating, Barley (winter barley; 250 g ai/ha): 0; Plant response rating (0 to 100), Canarygrass (canarygrass): 0; Plant response rating, Canarygrass (canarygrass; 62 g ai/ha): 0; Plant response rating, Canarygrass (canarygrass; 125 g ai/ha): 0; Plant response rating, Canarygrass (canarygrass; 250 g ai/ha): 10; Plant response rating (0 to 100), Chickweed (chickweed): 0; Plant response rating, Chickweed (chickweed; 62 g ai/ha): 40; Plant response rating, Chickweed (chickweed; 125 g ai/ha): 85; Plant response rating, Chickweed (chickweed; 250 g ai/ha): 95; Plant response rating, Russian Thistle (Russian thistle; 8 g ai/ha, preemergence): 0
CC(c1c(C(F)(F)F)nn(C)c1OC(F)F)S(=O)(=O)c1cccc[n+]1[O-] (centres unmarked) [Compound 5] | 25 | 100 | 50 | 100 | 100 | 100 | 100 | 100 | 100 | 100 | 100 | 100 | 0 | 0 | 60 |  |  |  |  |  | Plant response rating (0 to 100), Windgrass (windgrass; 31 g ai/ha): 30; Plant response rating (0 to 100), Windgrass (windgrass; 62 g ai/ha): 60; Plant response rating, Windgrass (windgrass; 125 g ai/ha): 70; Plant response rating, Windgrass (windgrass; 250 g ai/ha): 75; Plant response rating (0 to 100), Barley (winter barley): 0; Plant response rating, Barley (winter barley; 62 g ai/ha): 0; Plant response rating, Barley (winter barley; 125 g ai/ha): 20; Plant response rating, Barley (winter barley; 250 g ai/ha): 20; Plant response rating (0 to 100), Canarygrass (canarygrass): 0; Plant response rating, Canarygrass (canarygrass; 62 g ai/ha): 0; Plant response rating, Canarygrass (canarygrass; 125 g ai/ha): 0; Plant response rating, Canarygrass (canarygrass; 250 g ai/ha): 0; Plant response rating (0 to 100), Chickweed (chickweed): 0; Plant response rating, Chickweed (chickweed; 62 g ai/ha): 0; Plant response rating, Chickweed (chickweed; 125 g ai/ha): 10; Plant response rating, Chickweed (chickweed; 250 g ai/ha): 85; Plant response rating, Russian Thistle (Russian thistle; 8 g ai/ha, preemergence): 0
Cc1cc[n+]([O-])c([S+]([O-])Cc2c(C(F)(F)F)nn(C)c2OCC(F)(F)F)c1 (racemic) [Compound 30] |  | 80 | 40 | 60 |  |  | 100 | 100 |  | 100 | 75 | 100 | 100 | 100 | 100 | 100 | 100 | 100 | 100 | 100 | Plant response rating, Horseweed (Canada horseweed; Preemergence, 16 g ai/ha): 100; Plant response rating, Horseweed (Canada horseweed; Preemergence, 31 g ai/ha): 100; Russian Thistle plant response rating (Russian thistle; 125 g ai/ha, preemergence): 100
Cn1nc(C(F)(F)F)c(C[S+]([O-])c2cccc[n+]2[O-])c1Cl (centres unmarked) [Compound 8] |  | 95 | 0 | 75 |  |  | 90 | 65 |  | 95 | 0 | 60 |  |  |  | 95 | 100 | 98 | 100 | 100 | Plant response rating, Horseweed (Canada horseweed; Preemergence, 16 g ai/ha): 0; Plant response rating, Horseweed (Canada horseweed; Preemergence, 31 g ai/ha): 0; Russian Thistle plant response rating (Russian thistle; 125 g ai/ha, preemergence): 100
Cc1cc[n+]([O-])c(S(=O)(=O)C(C)c2c(C(F)(F)F)nn(C)c2OC(F)F)c1 (centres unmarked) [Compound 11] |  | 90 | 70 | 70 |  |  | 100 | 90 |  | 100 | 70 | 80 |  | 100 | 100 | 95 | 100 | 100 |  | 100 | Russian Thistle plant response rating (Russian thistle; 125 g ai/ha, preemergence): 100
Cc1cc[n+]([O-])c(S(=O)(=O)C(Cl)c2c(C(F)(F)F)nn(C)c2OCC(F)(F)F)c1 (racemic) [Compound 37] |  | 75 |  | 75 |  |  |  |  |  |  |  |  |  | 0 |  | 100 |  |  |  |  | Plant response rating, Johnsongrass (johnsongrass; 16 g ai/ha, preemergence): 30; Plant response rating, Spanishneedles (spanishneedles; 16 g ai/ha, preemergence): 0; Spanishneedles plant response rating (spanishneedles; 125 g ai/ha, preemergence): 0; Plant response rating, Spanishneedles (spanishneedles; Preemergence, 62 g ai/ha): 0; Plant response rating, Spanishneedles (spanishneedles; Preemergence, 31 g ai/ha): 0; Plant response rating, Russian Thistle (Russian thistle; 16 g ai/ha, preemergence): 0
Cc1cc[n+]([O-])c([S+]([O-])Cc2c(C(F)(F)F)nn(C)c2Cl)c1 (racemic) [Compound 20] | 0 | 90 | 50 | 60 | 0 | 65 | 50 | 0 | 0 | 95 | 80 | 90 | 0 |  |  |  |  |  | 0 |  | Plant response rating, Horseweed (Canada horseweed; 8 g ai/ha, preemergence): 0; Plant response rating, Horseweed (Canada horseweed; Preemergence, 16 g ai/ha): 0; Plant response rating, Horseweed (Canada horseweed; Preemergence, 31 g ai/ha): 0
